From PMC7279038, “Antioxidant and Neuroprotective Effects Induced by Cannabidiol and Cannabigerol in Rat CTX-TNA2 Astrocytes and Isolated Cortexes” (International Journal of Molecular Sciences, 2020) come the findings set out here.

What all share (details): mean ± S.D., n = 3
Assay [1] in a line: ABTS scavenging ability test. How it is done: For the 2,2′-azino-bis(3-ethylbenzothiazoline) 6-sulfonic acid (ABTS) radical scavenging assay, ABTS+ was produced directly by reacting 7 mM ABTS solution with 2.45 mM potassium persulfate and allowing the mixture to stand for […] in the dark at room temperature. Prior to beginning the assay, ABTS solution was diluted with methanol to an absorbance of 0.700 ± 0.02 at 734 nm. Sample solution was added to ABTS solution (2 mL) and mixed. The sample absorbance was read at 734 nm after a 30 min incubation at room temperature. The ABTS radical scavenging activity was expressed as IC50 values.

Assay [2] in a line: DPPH scavenging ability test. How it is done: For the 1,1-diphenyl-2-picrylhydrazyl (DPPH) radical scavenging assay, sample solution was added to 4 mL of a 0.004% methanol solution of DPPH. The sample absorbance was read at 517 nm after a 30 min incubation at room temperature in the dark. DPPH radical scavenging activity was expressed as IC50 values.
The nature of assay [3]: Cupric reducing antioxidant capacity (CUPRAC). How it is done:
For the cupric ion reducing activity (CUPRAC) activity assay, sample solution was added to premixed reaction mixture containing CuCl2 (1 mL, 10 mM), neocuproine (1 mL, 7.5 mM) and NH4Ac buffer (1 mL, 1 M, pH 7.0). Similarly, a blank was prepared by adding sample solution (0.5 mL) to premixed reaction mixture […] without CuCl2. Then, the sample and blank absorbances were read at 450 nm after a 30 min incubation at room temperature. The absorbance of the blank was subtracted from that of the sample. CUPRAC activity was expressed as IC50 values.

Assay [4] is described as follows: Ferric reducing antioxidant power (FRAP). How it is done:
For the ferric reducing antioxidant power (FRAP) activity assay, sample solution was added to premixed FRAP reagent (2 mL) containing acetate buffer (0.3 M, pH 3.6), 2,4,6-tris(2-pyridyl)-S-triazine (TPTZ) (10 mM) in 40 mM HCl and ferric chloride (20 mM) in a ratio of 10:1:1 (v/v/v). Then, the sample absorbance was read at 593 nm after a 30 min incubation at room temperature. FRAP activity was expressed as IC50 values.

With `Cc1c(C)c2c(c(C)c1O)CCC(C)(C(=O)O)O2` (stereo not shown) [Trolox], the IC50 was 410 ± 10 µM in assay [1], 210 ± 10 µM in assay [2], 500 ± 10 µM in assay [3] and 180 ± 10 µM in assay [4].
